{"source": "patent US20170190705A1", "about": "“Compositions and Methods for Inhibiting BMP” (THE BRIGHAM AND WOMAN'S HOSPITAL, INC., priority 2014, published 2017)", "type_in_all_cases": "biochemical", "key": {"PAK2": {"molecular_target": "PAK2 (Homo sapiens, UniProt Q13177)", "sequence (Q13177 whole entry)": "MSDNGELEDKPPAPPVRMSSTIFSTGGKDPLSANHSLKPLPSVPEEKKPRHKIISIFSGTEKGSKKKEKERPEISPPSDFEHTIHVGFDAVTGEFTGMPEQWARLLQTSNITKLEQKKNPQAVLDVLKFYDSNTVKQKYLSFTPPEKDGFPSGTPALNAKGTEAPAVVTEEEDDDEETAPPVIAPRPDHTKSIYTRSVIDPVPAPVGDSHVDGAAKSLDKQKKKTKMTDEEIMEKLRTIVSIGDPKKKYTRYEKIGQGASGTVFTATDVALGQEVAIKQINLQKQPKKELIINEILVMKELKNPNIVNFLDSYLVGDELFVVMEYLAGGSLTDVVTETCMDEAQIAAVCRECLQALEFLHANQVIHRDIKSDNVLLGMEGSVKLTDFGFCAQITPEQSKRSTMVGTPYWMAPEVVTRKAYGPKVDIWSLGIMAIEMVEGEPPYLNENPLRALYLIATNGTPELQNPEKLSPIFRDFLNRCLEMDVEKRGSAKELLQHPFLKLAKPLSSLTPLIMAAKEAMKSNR", "assay": "Kinome profiling PAK2", "conditions": "read-out: Inhibitory activity PAK2; for inhibition at 0.1 µM: 100 nM", "description": "(§1) . The kinome-wide selectivity was determined following the methods previously reported by Mohedas et al., ACS Chem Biol 2013, 8, 1291-1302 and Sanvitale et al., PLoS One 2013, 8, e62721."}, "HIPK4": {"molecular_target": "T1, HIPK4 (Homo sapiens, UniProt Q8NE63)", "T1 sequence (Q8NE63 1-616)": "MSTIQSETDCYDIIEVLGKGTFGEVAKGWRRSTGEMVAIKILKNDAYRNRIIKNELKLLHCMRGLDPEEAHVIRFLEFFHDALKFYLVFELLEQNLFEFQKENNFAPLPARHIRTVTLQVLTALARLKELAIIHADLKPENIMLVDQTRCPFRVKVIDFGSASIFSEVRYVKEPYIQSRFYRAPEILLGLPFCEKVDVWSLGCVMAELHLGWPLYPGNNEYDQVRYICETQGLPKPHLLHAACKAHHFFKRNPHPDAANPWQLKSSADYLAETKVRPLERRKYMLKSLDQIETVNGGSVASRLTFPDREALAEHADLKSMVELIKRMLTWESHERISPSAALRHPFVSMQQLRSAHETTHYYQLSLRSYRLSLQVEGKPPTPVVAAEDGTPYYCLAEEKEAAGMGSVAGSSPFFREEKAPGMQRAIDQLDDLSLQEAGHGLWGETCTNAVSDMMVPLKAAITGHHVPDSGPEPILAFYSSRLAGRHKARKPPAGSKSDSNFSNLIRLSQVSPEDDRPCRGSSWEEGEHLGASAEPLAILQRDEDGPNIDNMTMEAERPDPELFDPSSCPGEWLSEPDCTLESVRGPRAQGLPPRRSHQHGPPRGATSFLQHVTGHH", "assay": "Kinome profiling HIPK4", "conditions": "read-out: Inhibitory activity HIPK4; for inhibition at 0.1 µM: 100 nM", "description": "as §1"}, "PDK1": {"molecular_target": "T2, PDK1 (Homo sapiens, UniProt O15530)", "T2 sequence (O15530 1-556)": "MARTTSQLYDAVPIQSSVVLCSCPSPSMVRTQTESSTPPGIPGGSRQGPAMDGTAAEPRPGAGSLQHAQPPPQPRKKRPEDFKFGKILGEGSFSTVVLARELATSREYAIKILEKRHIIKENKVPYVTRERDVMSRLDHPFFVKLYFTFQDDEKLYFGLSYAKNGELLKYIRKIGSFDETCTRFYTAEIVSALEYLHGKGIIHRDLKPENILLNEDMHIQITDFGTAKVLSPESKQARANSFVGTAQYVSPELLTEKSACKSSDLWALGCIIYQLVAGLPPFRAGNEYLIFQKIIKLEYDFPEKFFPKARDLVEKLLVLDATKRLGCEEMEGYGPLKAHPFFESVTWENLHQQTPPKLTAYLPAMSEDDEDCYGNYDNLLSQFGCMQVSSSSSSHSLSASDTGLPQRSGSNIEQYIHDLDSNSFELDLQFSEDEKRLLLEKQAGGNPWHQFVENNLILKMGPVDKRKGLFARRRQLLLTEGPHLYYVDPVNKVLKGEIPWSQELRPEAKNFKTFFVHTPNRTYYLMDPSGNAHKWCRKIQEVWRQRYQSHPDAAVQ", "assay": "Kinome profiling PDK1", "conditions": "read-out: Inhibitory activity PDK1; for inhibition at 0.1 µM: 100 nM", "description": "as §1"}, "PTK5": {"molecular_target": "PTK5 (Homo sapiens, UniProt P42685)", "sequence (P42685 whole entry)": "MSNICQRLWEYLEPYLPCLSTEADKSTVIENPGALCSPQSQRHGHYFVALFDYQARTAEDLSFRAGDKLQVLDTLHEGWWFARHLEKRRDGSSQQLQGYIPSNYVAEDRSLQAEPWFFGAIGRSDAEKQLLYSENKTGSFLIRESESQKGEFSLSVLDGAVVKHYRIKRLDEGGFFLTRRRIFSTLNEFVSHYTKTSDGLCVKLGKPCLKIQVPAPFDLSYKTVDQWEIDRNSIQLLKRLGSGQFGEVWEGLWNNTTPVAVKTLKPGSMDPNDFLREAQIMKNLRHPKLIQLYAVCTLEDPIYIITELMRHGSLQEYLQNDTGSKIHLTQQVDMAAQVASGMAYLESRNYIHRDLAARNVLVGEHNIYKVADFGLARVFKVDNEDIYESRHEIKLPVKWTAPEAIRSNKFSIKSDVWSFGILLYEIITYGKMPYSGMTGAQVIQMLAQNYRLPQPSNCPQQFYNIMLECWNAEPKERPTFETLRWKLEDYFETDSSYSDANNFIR", "assay": "Kinome profiling PTK5", "conditions": "read-out: Inhibitory activity PTK5; for inhibition at 0.1 µM: 100 nM", "description": "as §1"}, "FGFR1": {"molecular_target": "FGFR1 (Homo sapiens, UniProt P11362)", "sequence (P11362 22-822)": "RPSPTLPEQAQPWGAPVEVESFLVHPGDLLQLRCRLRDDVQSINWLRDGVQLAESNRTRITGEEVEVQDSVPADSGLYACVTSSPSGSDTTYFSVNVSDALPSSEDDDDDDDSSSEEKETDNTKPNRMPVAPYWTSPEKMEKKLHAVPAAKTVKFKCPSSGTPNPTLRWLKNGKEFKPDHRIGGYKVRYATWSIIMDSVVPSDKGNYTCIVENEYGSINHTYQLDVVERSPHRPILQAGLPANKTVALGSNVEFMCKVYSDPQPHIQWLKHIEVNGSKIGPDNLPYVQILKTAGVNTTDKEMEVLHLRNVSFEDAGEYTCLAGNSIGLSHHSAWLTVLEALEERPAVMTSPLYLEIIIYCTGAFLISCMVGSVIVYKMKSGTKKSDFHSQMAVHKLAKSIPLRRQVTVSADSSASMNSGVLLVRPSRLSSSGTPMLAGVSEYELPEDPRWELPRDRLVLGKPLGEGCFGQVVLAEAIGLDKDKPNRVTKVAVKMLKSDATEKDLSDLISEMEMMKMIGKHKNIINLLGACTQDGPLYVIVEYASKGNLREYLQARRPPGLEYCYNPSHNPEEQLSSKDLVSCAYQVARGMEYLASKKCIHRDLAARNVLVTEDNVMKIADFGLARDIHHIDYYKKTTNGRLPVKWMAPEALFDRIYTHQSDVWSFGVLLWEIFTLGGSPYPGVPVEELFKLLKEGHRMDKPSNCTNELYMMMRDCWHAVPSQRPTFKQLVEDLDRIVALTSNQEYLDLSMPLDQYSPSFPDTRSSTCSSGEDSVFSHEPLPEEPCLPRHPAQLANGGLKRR", "assay": "Kinome profiling FGFR1", "conditions": "read-out: Inhibitory activity FGFR1; for inhibition at 0.1 µM: 100 nM", "description": "as §1"}, "PRKG2": {"molecular_target": "T3, PRKG2 (Homo sapiens, UniProt Q13237)", "T3 sequence (Q13237 1-762)": "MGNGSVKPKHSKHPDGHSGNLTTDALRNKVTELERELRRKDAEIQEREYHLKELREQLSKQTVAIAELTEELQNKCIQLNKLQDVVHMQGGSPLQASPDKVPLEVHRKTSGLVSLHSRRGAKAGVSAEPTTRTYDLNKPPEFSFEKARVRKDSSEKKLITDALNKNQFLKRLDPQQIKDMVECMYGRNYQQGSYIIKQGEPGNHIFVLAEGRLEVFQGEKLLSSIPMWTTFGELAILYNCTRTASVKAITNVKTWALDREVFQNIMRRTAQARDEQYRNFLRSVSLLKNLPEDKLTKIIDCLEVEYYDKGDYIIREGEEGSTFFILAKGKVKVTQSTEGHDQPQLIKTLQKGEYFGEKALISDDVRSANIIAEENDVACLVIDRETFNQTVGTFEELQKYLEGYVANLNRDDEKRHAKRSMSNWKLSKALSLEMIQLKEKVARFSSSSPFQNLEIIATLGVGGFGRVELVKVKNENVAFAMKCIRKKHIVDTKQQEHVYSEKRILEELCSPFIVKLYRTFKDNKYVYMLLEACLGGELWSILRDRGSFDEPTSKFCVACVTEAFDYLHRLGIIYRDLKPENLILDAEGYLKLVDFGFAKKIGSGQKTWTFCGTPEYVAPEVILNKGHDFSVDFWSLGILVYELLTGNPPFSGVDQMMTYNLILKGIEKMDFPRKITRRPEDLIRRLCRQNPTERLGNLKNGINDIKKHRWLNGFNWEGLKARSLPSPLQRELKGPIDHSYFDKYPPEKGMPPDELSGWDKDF", "assay": "Kinome profiling PRKG2", "conditions": "read-out: Inhibitory activity PRKG2; for inhibition at 0.1 µM: 100 nM", "description": "as §1"}}}
{"compound": "COc1cc(-c2cc(-c3ccc(N4CCNCC4)cc3)cnc2C)cc(OC)c1OC", "note": "[Compound 10, 1-(4-(6-methyl-5-(3,4,5-trimethoxyphenyl)pyridin-3-yl)phenyl)piperazine]", "values": [{"measurement": "inhibition at 0.1 µM", "setting": "PAK2", "value": 0, "unit": "%"}, {"measurement": "inhibition at 1 µM", "setting": "PAK2", "value": 1, "unit": "%"}, {"measurement": "inhibition at 0.1 µM", "setting": "HIPK4", "value": 5, "unit": "%"}, {"measurement": "inhibition at 1 µM", "setting": "HIPK4", "value": 8, "unit": "%"}, {"measurement": "inhibition at 0.1 µM", "setting": "PDK1", "value": 3, "unit": "%"}, {"measurement": "inhibition at 1 µM", "setting": "PDK1", "value": 6, "unit": "%"}, {"measurement": "inhibition at 0.1 µM", "setting": "PTK5", "value": 1, "unit": "%"}, {"measurement": "inhibition at 1 µM", "setting": "PTK5", "value": 11, "unit": "%"}, {"measurement": "inhibition at 0.1 µM", "setting": "FGFR1", "value": 5, "unit": "%"}, {"measurement": "inhibition at 1 µM", "setting": "FGFR1", "value": 5, "unit": "%"}, {"measurement": "inhibition at 0.1 µM", "setting": "PRKG2", "value": 0, "unit": "%"}, {"measurement": "inhibition at 1 µM", "setting": "PRKG2", "value": 4, "unit": "%"}]}
{"compound": "COc1cc(-c2cc(-c3ccc(N4CCNCC4)cc3)cnc2N)cc(OC)c1OC", "note": "[Compound 15, 5-(4-(piperazin-1-yl)phenyl)-3-(3,4,5-trimethoxyphenyl)pyridin-2-amine]", "values": [{"measurement": "inhibition at 0.1 µM", "setting": "PAK2", "value": 0, "unit": "%"}, {"measurement": "inhibition at 1 µM", "setting": "PAK2", "value": 1, "unit": "%"}, {"measurement": "inhibition at 0.1 µM", "setting": "HIPK4", "value": 1, "unit": "%"}, {"measurement": "inhibition at 1 µM", "setting": "HIPK4", "value": 2, "unit": "%"}, {"measurement": "inhibition at 0.1 µM", "setting": "PDK1", "value": 3, "unit": "%"}, {"measurement": "inhibition at 1 µM", "setting": "PDK1", "value": 3, "unit": "%"}, {"measurement": "inhibition at 0.1 µM", "setting": "PTK5", "value": 17, "unit": "%"}, {"measurement": "inhibition at 1 µM", "setting": "PTK5", "value": 66, "unit": "%"}, {"measurement": "inhibition at 0.1 µM", "setting": "FGFR1", "value": 3, "unit": "%"}, {"measurement": "inhibition at 1 µM", "setting": "FGFR1", "value": 8, "unit": "%"}, {"measurement": "inhibition at 0.1 µM", "setting": "PRKG2", "value": 0, "unit": "%"}, {"measurement": "inhibition at 1 µM", "setting": "PRKG2", "value": 1, "unit": "%"}]}
